Test results reported in patent publication US11872216B2, “Pharmaceutical formulation comprising cineole and amoxicillin” (priority 2016, dated 2024).

Legend:
Test in all cases: Microplate microdilution growth inhibition (PIC, MIC, FIC-index)
Assay type in all cases: cell-based
[1] = system: BSBL Klebsiella pneumoniae H1893
Protocol: (§1) The six strains tested in this study are purified clinical isolates identified in the bacteriology laboratory of the Hassan II university teaching hospital center (CHU, Fes, Morocco). Three of the six bacterial strains tested are strains of BSBL Escherichia coli (P956, P933 and P7847) and the other three bacterial strains tested are strains of BSBL Klebsiella pneumoniae (H1878, H2001 and H1893).
(§2) For each test performed, precultures of the bacterial strains (frozen beforehand at −20° C.) for 24 h at 37° C. were prepared. From these precultures, bacterial inocula containing 2×10^7 CFU (colony-forming units)/ml were prepared, adjusting the optical density to 540 nm.
(§3) Amoxicillin (AMX) and cineole were supplied by Sigma Aldrich (France). A stock solution of AMX (400 μg/ml) was prepared after dissolving 40 mg of antibiotic in 100 ml of sterile distilled water. From this stock solution, serial dilutions were performed. The cineole concentrations used were prepared by emulsifying pure cineole in 0.2% (v/v) of agar-agar according to the method described by Remmal A et al. (J. Essent. Oil. Res [Book], 1993, 5: pages 1179-1184).
(§4) The partial inhibitory concentrations (PIC) are the concentrations of antibacterial agents which inhibit the growth of a given percentage (90%, 75%, 50%, 40% . . . ) of the bacterial population studied. The PICs of AMX and cineole with respect to the six bacterial strains used were determined via a microplate microdilution technique based on the monitoring of the bacterial growth by measuring the optical density (Casey J. T. et al., J. Microbiol. Meth [Book], 2004, 58: pages 327-334; Patton T et al., J. Microbiol. Meth [Book], 2006, 64: pages 84-95).
(§5) 96-well U-shaped sterile microplates with a capacity of 200 μl were used. For each microplate, two control rows were prepared: • A row containing 200 μl of the MH liquid medium (sterility control and negative control). • A row containing 150 μl of the MH liquid medium and 50 μl of the bacterial inoculum at 2×10^7 CFU/ml (positive control).
(§6) For AMX and cineole, two rows were prepared containing 100 μl of MH liquid medium, 50 μl of the bacteria inoculum at 2×10^7 CFU/ml and 50 μl of decreasing concentrations of antimicrobial agents. The AMX concentrations used are: 50-25-12.5-6.25-3.1-1.6-0.8-0.4-0.20-0.10-0.05-0.025 μg/ml. The cineole concentrations used are: 100-50-25-12.5-6.25-3.1-1.6-0.8-0.4-0.20-0.10-0.05 μl/ml. The optical densities (OD) were determined at 540 nm using a microplate spectrophotometer (Versamax, Molecular Devices, USA). The OD was measured at time t=0 and after 22 hours of incubation at 30° C. The percentage of inhibition of the antimicrobial agents with respect to each of the six strains was calculated according to Casey J. T. et al. (J. Microbiol. Meth. [Book], 2004, 58: pages 327-334) according to the following formula:
(§7) With ODT0=OD of the test well at time t=0, ODT22=OD of the test well after 22 h of incubation, ODC0=OD of the positive control well at time t=0, ODC22=OD of the positive control well after 22 h of incubation.
(§8) After having determined the PICs of AMX and cineole alone, the antibacterial power of the combination of AMX and cineole was evaluated. The same technique of microplate microdilution was used. The AMX-cineole combinations were prepared in sterile tubes as follows: • AMX 50% PIC+cineole 40% PIC • AMX 50% PIC+cineole 30% PIC • AMX 50% PIC+cineole 20% PIC • AMX 25% PIC+cineole 40% PIC • AMX 25% PIC+cineole 30% PIC • AMX 25% PIC+cineole 20% PIC.
(§9) The fractional inhibitory concentration index (FIC-index) expressing the degree of synergism of the AMX-cineole combination was calculated according to the following formula (Odds F. C. et al., J. Antimicrob. Chemoth. [Book], 2003, 52: page 1).
(§10) The AMX-cineole combination is considered: • Synergistic when the FIC-index is ≤0.5 • Additive when 0.5<FIC-index <1 • Indifferent when 1<FIC-index <2 • Antagonistic when FIC-index >2. Results

[2] = system: BSBL Escherichia coli P7847
Protocol: as §1, §2, §3, §4, §5, §6, §7, §8, §9, §10

[3] = system: BSBL Klebsiella pneumoniae H2001
Protocol: as §1, §2, §3, §4, §5, §6, §7, §8, §9, §10

[4] = system: BSBL Escherichia coli P956
Protocol: as §1, §2, §3, §4, §5, §6, §7, §8, §9, §10

[5] = system: BSBL Klebsiella pneumoniae H1878
Protocol: as §1, §2, §3, §4, §5, §6, §7, §8, §9, §10

[6] = system: BSBL Escherichia coli P933
Protocol: as §1, §2, §3, §4, §5, §6, §7, §8, §9, §10

[7] = cineole alone, Klebsiella pneumoniae H1893
[8] = cineole alone, Escherichia coli P7847
[9] = cineole alone, Klebsiella pneumoniae H2001
[10] = cineole alone, Escherichia coli P956
[11] = cineole alone, Klebsiella pneumoniae H1878
[12] = cineole alone, Escherichia coli P933

## CC1(C)S[C@@H]2[C@H](NC(=O)[C@H](N)c3ccc(O)cc3)C(=O)N2[C@H]1C(=O)O [amoxicillin, Amoxicillin]
[1]; Klebsiella pneumoniae, K. pneumoniae 111893, read-out: 100% MIC Alone (amoxicillin, first figure of the cell)
  MIC: 50 µg/mL
[1]; amoxicillin alone, Klebsiella pneumoniae H1893
  25% PIC: 0.8 ± 0.12 µg/mL
[1]; amoxicillin alone, Klebsiella pneumoniae H1893, read-out: 50% PIC
  IC50: 1.7 ± 0.09 µg/mL
[2]; Escherichia coli, E. coli P7847, read-out: 100% MIC Alone (amoxicillin, first figure of the cell)
  MIC: 50 µg/mL
[2]; amoxicillin alone, Escherichia coli P7847
  25% PIC: 0.8 ± 0.17 µg/mL
[2]; amoxicillin alone, Escherichia coli P7847, read-out: 50% PIC
  IC50: 1.5 ± 0.13 µg/mL
[3]; Klebsiella pneumoniae, K. pneumoniae 112001, read-out: 100% MIC Alone (amoxicillin, first figure of the cell)
  MIC: 50 µg/mL
[3]; amoxicillin alone, Klebsiella pneumoniae H2001
  25% PIC: 0.6 ± 0.14 µg/mL
[3]; amoxicillin alone, Klebsiella pneumoniae H2001, read-out: 50% PIC
  IC50: 1.3 ± 0.12 µg/mL
[4]; Escherichia coli, E. coli P956, read-out: 100% MIC Alone (amoxicillin, first figure of the cell)
  MIC: 50 µg/mL
[4]; amoxicillin alone, Escherichia coli P956
  25% PIC: 0.7 ± 0.14 µg/mL
[4]; amoxicillin alone, Escherichia coli P956, read-out: 50% PIC
  IC50: 1.1 ± 0.25 µg/mL
[5]; Klebsiella pneumoniae, K. pneumoniae 111878, read-out: 100% MIC Alone (amoxicillin, first figure of the cell)
  MIC: 50 µg/mL
[5]; amoxicillin alone, Klebsiella pneumoniae H1878
  25% PIC: 0.9 ± 0.09 µg/mL
[5]; amoxicillin alone, Klebsiella pneumoniae H1878, read-out: 50% PIC
  IC50: 1.6 ± 0.17 µg/mL
[6]; Escherichia coli, E. coli P933, read-out: 100% MIC Alone (amoxicillin, first figure of the cell)
  MIC: 50 µg/mL
[6]; amoxicillin alone, Escherichia coli P933
  25% PIC: 0.5 ± 0.10 µg/mL
[6]; amoxicillin alone, Escherichia coli P933, read-out: 50% PIC
  IC50: 1.3 ± 0.24 µg/mL

## CC12CCC(CC1)C(C)(C)O2 [cineole, 1,8-cineole]
[1]; K. pneumoniae 111893
  100% MIC Alone (cineole, second figure of the cell): 100 μl/ml
[1]; [7]
  20% PIC: 0.6 ± 0.12 μl/ml
  30% PIC: 2.7 ± 0.09 μl/ml
  40% PIC: 6.8 ± 0.09 μl/ml
[2]; E. coli P7847
  100% MIC Alone (cineole, second figure of the cell): 100 μl/ml
[2]; [8]
  20% PIC: 1.2 ± 0.11 μl/ml
  30% PIC: 2.7 ± 0.12 μl/ml
  40% PIC: 6.5 ± 0.10 μl/ml
[3]; K. pneumoniae 112001
  100% MIC Alone (cineole, second figure of the cell): 100 μl/ml
[3]; [9]
  20% PIC: 0.7 ± 0.09 μl/ml
  30% PIC: 3.1 ± 0.10 μl/ml
  40% PIC: 6.9 ± 0.12 μl/ml
[4]; E. coli P956
  100% MIC Alone (cineole, second figure of the cell): 100 μl/ml
[4]; [10]
  20% PIC: 1.2 ± 0.16 μl/ml
  30% PIC: 2.6 ± 0.12 μl/ml
  40% PIC: 6.2 ± 0.20 μl/ml
[5]; K. pneumoniae 111878
  100% MIC Alone (cineole, second figure of the cell): 100 μl/ml
[5]; [11]
  20% PIC: 0.4 ± 0.12 μl/ml
  30% PIC: 2.9 ± 0.12 μl/ml
  40% PIC: 7.1 ± 0.12 μl/ml
[6]; E. coli P933
  100% MIC Alone (cineole, second figure of the cell): 100 μl/ml
[6]; [12]
  20% PIC: 1.3 ± 0.24 μl/ml
  30% PIC: 2.3 ± 0.09 μl/ml
  40% PIC: 6.8 ± 0.14 μl/ml
